Several values for one entry are separate records, joined by “and”; a condition that tells them apart may be missing. Equal entries are not always repeated. Entries after “also recorded” stand apart in the source; their conditions may differ. Where two headings read alike, the source gives them in different places.
Assays:
[1] = system: HT-1080-FAP cells; experiment: cell uptake in HT-1080-FAP cells; format: cell-based, human
Description: (§1) The human fibrosarcoma cell lines HT-1080 and HT-1080-FAP transferred with human FAP gene were both cultured in Dulbecco modified Eagle medium supplemented with 10% fetal bovine serum (Gibco, USA) at 37℃/5% carbon dioxide. For cell uptake experiments, HT-1080-FAP cells (~ 1 × 10^5/well) or HT-1080 (~ 1 × 10^5/well) were seeded in 24-well plates for 24–48 h and incubated at 37℃ with radiolabeled compounds (74 kBq/well) in 0.5 mL of serum-free medium for indicated times. Non-specific binding was determined by co-incubating with 100 μM FAP inhibitor UAMC1110. For competitive FAP binding assays, HT-1080-FAP cells were incubated with [^177Lu]Lu-FAPI-04 (74 kBq/well) in the presence of different concentrations (10^−3–10^4 nM) of competing non-radioactive ligands. For internalization experiments, the radiotracer-incubated cells were washed twice with PBS (pH 7.4), followed by glycine–HCl (0,05 M, pH = 2.8) solution to distinguish between cell surface–bound (acid-releasable) and internalized (acid-resistant) radioligand. For efflux experiments, cells were preincubated with [^177Lu]21 or [^177Lu]Lu-FAPI-04 for 1 h and subsequently incubated at 37 °C in a medium free of radiotracer and serum for different time periods. The medium was removed and the cells were washed twice with cold PBS (pH 7.4) and subsequently lysed with 0.5 mL of NaOH (1 M). Cell lysates were collected and the radioactivity was determined using a γ-counter.

[2] = system: HT-1080 cells; experiment: cell uptake in HT-1080 (FAP negative) cells; format: cell-based, human
Description: as §1, with “The medium was removed and the cells were washed twice with cold PBS (pH 7.4) and subsequently lysed with 0.5 mL of NaOH (1 M).” left out

[3] = system: HT-1080 xenograft; experiment: micro-PET/CT imaging, FAP-negative HT-1080 xenograft; format: in vivo, BALB/C-nu/nu mice; details: dynamic PET 0-120 min
Description: (§2) All animal experiments were conducted in compliance with a protocol approved by the First Affiliated Hospital of Sun Yat-sen University Institutional Animal Care and Use Committee. BALB/C-nu/nu mice (4–5-week old with body weight of 16–22 g) were purchased from GemPharmatech Co., Ltd. Mice were housed under standard conditions with temperature and light control (12-h-light/12-h-dark cycle) and had free access to water and food. For the tumor model, HT-1080-FAP or HT-1080 cells (5 × 10^6) were subcutaneously injected into the right or left flank of nude mice, respectively. As the tumor diameter reached 3–4 mm, mice were treated with radioligands. Micro-PET and SPECT imaging studies, as well as biodistribution, were conducted when the tumor diameter reached 5–10 mm.
(§3) The dynamic micro-PET/CT (Siemens Inveon) imaging studies were conducted to evaluate the pharmacokinetics. The HT-1080-FAP and HT-1080 tumor-bearing mice were injected with 3.7–7.4 MBq of [^18F]21 or [^68 Ga]Ga-FAPI-04 via tail vein. […] Dynamic PET scans were performed from 0 to 120 min with image reconstruction of every 5 min. Micro-PET imaging was reconstructed using a three-dimensional ordered-subset expectation maximum (OSEM) algorithm (Siemens, Erlangen, Germany). The images and regions of interest (ROIs) were produced using Inveon Research Workplace (Siemens, Erlangen, Germany).

[4] = in vitro stability in PBS or murine serum (radio-HPLC); format: in vitro ADME
Description: (§4) [^18F]21 or [^177Lu]21 (50 μCi, 10 μL) was added to PBS (90 μL) or murine serum (90 μL) and the mixture was incubated at 37 °C for a certain time ([^18F]21: 2 h, [^177Lu]21: 8 d). The PBS mixture was injected directly into the radio-HPLC for analysis. The murine serum was precipitated with 0.1 mL of acetonitrile and centrifuged (10,000 rpm, 5 min). The supernatant was measured and analyzed by the radio-HPLC to determine the stability. For in vivo stability study, the radio tracers were injected into the tail vein of ICR mice and samples of blood were collected after a certain time post injection (pi) ([^18F]21: 4 h, [^177Lu]21: 9 h). The plasma proteins were precipitated using an equal volume of acetonitrile and centrifuged (10,000 rpm, 5 min). The RCP of radio tracer in supernatants were analyzed and quantified by radio-HPLC. The radio-HPLC method was as follows: A: 0.1% TFA in H2O, B: ACN, 0–10 min, 0–100% B. The flow rate was 1 mL/min, and the C18 column (4.6 × 150 mm, 5 μm, ZORBAX, Agilent) was used. When using HPLC to assess the stability of [^177Lu]21, the effluent was collected every 30 s due to its less radioactivity, and samples were measured by an automatic γ-counter (2480 Wizard2, Perkin Elmer). The counted samples were plotted as intensity (cpm) against fraction.

[5] = system: HT-1080-FAP cells; experiment: internalization experiments in HT-1080-FAP cells; format: cell-based, human; details: 10 min
Description: as §1, with “The medium was removed and the cells were washed twice with cold PBS (pH 7.4) and subsequently lysed with 0.5 mL of NaOH (1 M).” left out

[6] = system: HT-1080-FAP xenograft; experiment: micro-PET/CT imaging, HT-1080-FAP xenograft; format: in vivo, BALB/C-nu/nu mice
Description: as §2, §3

[7] = in vivo stability in ICR mice, blood samples (radio-HPLC)
Description: as §4

[8] = biological target: T1, HT-1080-FAP tumor slide (Homo sapiens, UniProt Q12884); experiment: in vitro autoradiography of HT-1080-FAP tumor slides; details: unlabeled 20 at 130 μM
T1 construct: from tissue; host or cells: slides of HT-1080-FAP xenograft tumor (transfected human fibrosarcoma cells grown subcutaneously in BALB/C-nu/nu mice)
T1 sequence (Q12884 1-760): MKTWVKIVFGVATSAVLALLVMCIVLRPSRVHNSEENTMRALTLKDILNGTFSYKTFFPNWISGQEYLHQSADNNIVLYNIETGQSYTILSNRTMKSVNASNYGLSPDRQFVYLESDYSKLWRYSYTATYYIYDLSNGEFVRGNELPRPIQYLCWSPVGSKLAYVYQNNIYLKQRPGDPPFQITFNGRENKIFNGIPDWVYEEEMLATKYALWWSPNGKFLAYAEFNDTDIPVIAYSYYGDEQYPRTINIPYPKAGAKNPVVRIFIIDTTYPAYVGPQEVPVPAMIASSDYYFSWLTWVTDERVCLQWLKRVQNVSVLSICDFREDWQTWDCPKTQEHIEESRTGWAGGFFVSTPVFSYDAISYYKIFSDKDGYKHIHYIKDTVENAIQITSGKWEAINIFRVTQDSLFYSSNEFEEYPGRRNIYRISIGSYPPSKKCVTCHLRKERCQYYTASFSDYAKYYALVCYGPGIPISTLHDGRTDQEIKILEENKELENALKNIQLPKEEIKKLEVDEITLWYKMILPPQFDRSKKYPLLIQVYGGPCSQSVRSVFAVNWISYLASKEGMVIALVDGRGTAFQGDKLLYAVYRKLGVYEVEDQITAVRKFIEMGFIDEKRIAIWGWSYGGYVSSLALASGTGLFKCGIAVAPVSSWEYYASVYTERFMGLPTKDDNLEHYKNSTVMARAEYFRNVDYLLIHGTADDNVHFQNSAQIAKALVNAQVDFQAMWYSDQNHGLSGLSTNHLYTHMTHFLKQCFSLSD
Description: The slides of HT-1080-FAP tumor were incubated with [^18F]21 for 1 h, exposed on a phosphoscreen, and subsequently scanned on a Beckman Coulter FLA7000IP Typhoon storage phosphorimager. Immunohistochemical staining of FAP was performed on the adjacent section.

[9] = biological target: T2, FAP (Homo sapiens, UniProt Q12884); experiment: competitive FAP binding assay against [^177Lu]Lu-FAPI-04 in HT-1080-FAP cells
T2 construct: expressed in transfected cells; host or cells: HT-1080 human fibrosarcoma cells (HT-1080-FAP)
T2 sequence (Q12884 1-760): T1 sequence (Q12884 1-760)

[10] = 60 min pi, FAPI-04 25 μg/animal co-injected

CC(C)(C)[Si]([18F])(c1ccc(C(=O)NCC(NC(=O)CCC(C(=O)O)N2CCN(CC(=O)[O-])CCN(CC(=O)[O-])CCN(CC(=O)[O-])CC2)C(=O)NCC2CCC(C(=O)NCCCOc3ccc4nccc(C(=O)NCC(=O)N5CC(F)(F)CC5C#N)c4c3)CC2)cc1)C(C)(C)C.[Lu+3] (stereo not drawn) [[^18F]21]
cell uptake ([1]; 10 min incubation): 60.18% ± 3.84 | cell uptake ([1]; 1 h incubation): 86.43% ± 5.47 and 86.43% ± 5.46 | cell uptake with competitor ([1]; co-incubation with 100 μM FAP inhibitor UAMC1110): could be blocked by FAP inhibitor; also recorded: could be blocked by UAMC1110 | cell uptake in FAP negative cells [2]: Almost no uptakes | FAP-negative HT-1080 tumor uptake (PET) [3]: did not show any uptakes | time stable in vitro ([4]; 37 °C, PBS or murine serum): at least 2 h | in vitro stability ([4]; as summarised in discussion): > 90% | internalization rate [5]: > 80% | tumor uptake (PET ROI), without competitor ([6]; 60 min pi): 14.13 ± 3.19 %ID/g | tumor uptake (PET ROI), blocking with FAPI-04 [6, 10]: 3.8 ± 0.89 %ID/g | uptake in joints, blocking with FAPI-04 [6, 10]: blocked significantly | fold higher tumor uptake than [^68 Ga]Ga-FAPI-04 ([6]; 2 h pi): 14.9 fold | HT-1080-FAP tumor uptake (PET) ([6]; 2 h pi, dynamic PET): 10.04 %ID/g | metabolization in blood samples (radio-HPLC) ([7]; ICR mice, within 4 h pi): little evidence of any metabolization | in vivo stability ([7]; as summarised in discussion): > 90%

CC(C)(C)[Si](F)(c1ccc(C(=O)NC[C@H](NC(=O)CCC(C(=O)O)N2CCN(CC(=O)O)CCN(CC(=O)O)CCN(CC(=O)O)CC2)C(=O)NC[C@H]2CC[C@H](C(=O)NCCCOc3ccc4nccc(C(=O)NCC(=O)N5CC(F)(F)C[C@H]5C#N)c4c3)CC2)cc1)C(C)(C)C (stereo partly drawn) [Compound 20]
blocking of [^18F]21 autoradiography signal [8]: could be blocked by unlabeled 20 | IC50 [9]: 2.29 ± 1.12 nM

CC(C)(C)[Si](F)(c1ccc(C(=O)NCC(NC(=O)CCC(C(=O)O)N2CCN(CC(=O)[O-])CCN(CC(=O)[O-])CCN(CC(=O)[O-])CC2)C(=O)NCC2CCC(C(=O)NCCCOc3ccc4nccc(C(=O)NCC(=O)N5CC(F)(F)CC5C#N)c4c3)CC2)cc1)C(C)(C)C.[Lu+3] (stereo not drawn) [Compound 21]
IC50 ([9]; HT-1080-FAP cells, competition with [^177Lu]Lu-FAPI-04, read-out: IC50 (binding affinity towards FAP)): 2.53 ± 1.87 nM

— article PMC10250256, “A radiohybrid theranostics ligand labeled with fluorine-18 and lutetium-177 for fibroblast activation protein-targeted imaging and radionuclide therapy” (European Journal of Nuclear Medicine and Molecular Imaging, 2023)
